The values below are quoted from earlier work in paper PMC4043931 (Chembiochem : a European journal of chemical biology, 2014).

Conditions in all cases: listed for comparison; ref [7i], [10]
Data set [1] has as its system Pseudomonas aeruginosa (ATCC 27853).
For data set [2], the system named is Klebsiella. pneumoniae (ATCC 13383).
The test system of data set [3] is Methicillin-resistant Staphylococcus aureus (ATCC 33591).
The subject of data set [4] is Vancomycin-resistant Enterococcus faecalis (ATCC 700802).
Data set [5] concerns human red blood cells (hRBC's).
In data set [6] the test system is Methicillin-resistant Staphylococcus epidermidis (RP62A).

Take Pexiganan: the “MIC P. aeruginosa” value in data set [1] is 16 µg/mL. For the same substance, in data set [2], the “MIC K. pneumoniae” value is 8 µg/mL. For the same substance, the “MIC S. aureus” value in data set [3] is 16 µg/mL. In data set [4], the “MIC E. faecalis” value was 32 µg/mL. Also, the “Hemolysis HC50” value in data set [5] is 120 µg/mL. For the same substance, in data set [6], the “MIC S. epidermidis” value is 8 µg/mL.
